Values of other authors in patent EP2484728B1, “Ink composition, ink set, and image forming method” (Fujifilm Corporation, priority 2011, dated 2012).

Settings: 25°C; Polymer Handbook values, otherwise calculated by the Fedors method

| Compound | SP value |
| --- | --- |
| CCCCC(O)CO (centres unmarked) [1,2-Hexanediol] | 24.1 (MPa)^1/2 |
| OCCOCCO [DEG, Diethylene glycol] | DEG (30.6) (MPa)^1/2 |
| COCCOCCO [Diethylene glycol monomethyl ether] | 22.4 (MPa)^1/2 |
| COC(C)COC(C)CO (centres unmarked) [Dipropylene glycol monomethyl ether] | 21.3 (MPa)^1/2 |
| CCOCC(C)O (centres unmarked) [Propylene glycol monoethyl ether] | 22.3 (MPa)^1/2 |
| CCOCCOCCOCCO [Triethylene glycol monoethyl ether] | 21.7 (MPa)^1/2 |
| COCCOCCOCCO [Triethylene glycol monomethyl ether] | 22.1 (MPa)^1/2 |
| COC(C)COC(C)COC(C)CO (centres unmarked) [Tripropylene glycol monomethyl ether] | 20.4 (MPa)^1/2 |
| OCC(O)CO [glycerin] | glycerin (33.5) (MPa)^1/2 |
| Decaoxyethylene heptaoxypropylene butyl ether | 18.8 (MPa)^1/2 |
| Dioxyethylene dioxypropylene butyl ether | 20.1 (MPa)^1/2 |
| Dodecaoxyethylene dodecaoxypropylene butyl ether | 18.8 (MPa)^1/2 |
| POE (20) diglyceryl ether | 22.4 (MPa)^1/2 |
| POE (40) diglyceryl ether | 21.0 (MPa)^1/2 |
| POP (3) glycerylether | 26. 4 (MPa)^1/2 |
| POP (4) diglyceryl ether | 26.1 (MPa)^1/2 |
| POP (5) glyceryl ether | 23.9 (MPa)^1/2 |
| POP (6) glyceryl ether | 23. 2 (MPa)^1/2 |
| POP (7) glyceryl ether | 22.6 (MPa)^1/2 |
| POP (10) glyceryl ether | 21.4 (MPa)^1/2 |
| POP (16) glyceryl ether | 20.2 (MPa)^1/2 |
| Pentacosaoxyethylene triacontaoxypropylene butyl ether | 18.8 (MPa)^1/2 |

The next lines start with the values.

| SP value | Compound |
| --- | --- |
| 21.5 (MPa)^1/2 | CCCCOCCOCCO [Diethylene glycol monobutyl ether] |
| 21.2 (MPa)^1/2 | CC(O)COC(C)COC(C)COC(C)COC(C)COC(C)COC(C)CO (centres unmarked) [Heptapropylene glycol] |
| 21.1 (MPa)^1/2 | CCCCOCCOCCOCCO [Triethylene glycol monobutyl ether] |
| 24.7 (MPa)^1/2 | CC(O)COC(C)COC(C)CO (centres unmarked) [Tripropylene glycol] |
| 18.7 (MPa)^1/2 | Decaoxyethylene triacontaoxypropylene butyl ether |
| 24.9 (MPa)^1/2 | POP (4) glyceryl ether |
| 22.1 (MPa)^1/2 | POP (8) glyceryl ether |
| 22.7 (MPa)^1/2 | POP (9) diglyceryl ether |
| 21.7 (MPa)^1/2 | POP (9) glyceryl ether |
| 18.8 (MPa)^1/2 | Pentaoxyethylene pentaoxypropylene butyl ether |
